# Results reported in ChEMBL document CHEMBL1201862, “PubChem BioAssay data set” (2004).
#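 Protocol summary: plate cells (96-well), add compound at 5 concentrations, incubate 48 h, interpolate endpoints linearly. GI50 = concentration required for 50% inhibition of growth.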 Calls of active or inactive are those of the source. Rule as the data show it: active = GI50 up to about 1.1 µM and inactive = higher.
# Tests used:
# Assay in all cases: NCI anticancer screen, dose series, 48 h
# [1] = system: SF-539
# [2] = system: MDA-N
# [3] = system: U-251
# [4] = system: 786-0
# [5] = system: HL-60
# [6] = system: NCI-H522
# [7] = system: SF-295
# [8] = system: Hs-578T
# [9] = system: Malme-3M
# [10] = system: OVCAR-4
# [11] = system: BT-549
# [12] = system: TK-10
# [13] = system: SN12C
# [14] = system: SK-MEL-5
# [15] = system: HCT-15
# [16] = system: CAKI-1
# [17] = system: NCI/ADR-RES
# [18] = system: K562
# [19] = system: MDA-MB-231
# [20] = system: PC-3
Compound,GI50 [1],GI50 [2],GI50 [3],GI50 [4],GI50 [5],GI50 [6],GI50 [7],GI50 [8],GI50 [9],GI50 [10],GI50 [11],GI50 [12],GI50 [13],GI50 [14],GI50 [15] [µM],GI50 [16],GI50 [17],GI50 [18],GI50 [19],GI50 [20]
Nc1nc(-c2cccnc2)cc(-c2cc(-c3cccnc3)nc(N)n2)n1,> 100 µM (inactive),58.7 µM (inactive),> 100 µM (inactive),> 100 µM (inactive),> 100 µM (inactive),> 100 µM (inactive),> 100 µM (inactive),> 100 µM (inactive),> 100 µM (inactive),> 100 µM (inactive),> 100 µM (inactive),> 100 µM (inactive),> 100 µM (inactive),> 100 µM (inactive),> 100,> 100 µM (inactive),> 100 µM (inactive),> 100 µM (inactive),> 100 µM (inactive),> 100 µM (inactive)
CC1(O)CC2(O)C=CC3=C(C(=O)c4cccc(O)c4C3=O)C2(O)C(=O)C1O (stereo not given),5.5 µM (inactive),1.78 µM (inactive),4.04 µM (inactive),1.96 µM (inactive),0.478 µM (active),0.124 µM (active),13.6 µM (inactive),3.1 µM (inactive),0.406 µM (active),1.51 µM (inactive),1.17 µM (inactive),1.73 µM (inactive),3.28 µM (inactive),3.3 µM (inactive),1.28,0.91 µM (active),7.83 µM (inactive),0.94 µM (active),3.31 µM (inactive),6 µM (inactive)
O=c1ccs[nH]1,5.92 µM (inactive),17.5 µM (inactive),7.21 µM (inactive),6.15 µM (inactive),3.13 µM (inactive),0.42 µM (active),6.17 µM (inactive),22 µM (inactive),8.91 µM (inactive),16 µM (inactive),16.8 µM (inactive),13.8 µM (inactive),11.1 µM (inactive),5.78 µM (inactive),11.6,9.46 µM (inactive),17.7 µM (inactive),7.82 µM (inactive),14.7 µM (inactive),12.9 µM (inactive)
COc1ccc(-c2cc(-c3ccco3)c(C#N)c(=S)n2C2OC(COC(C)=O)C(OC(C)=O)C(OC(C)=O)C2OC(C)=O)cc1 (stereo not given),1.85 µM (inactive),5.5 µM (inactive),5.94 µM (inactive),3.28 µM (inactive),3.98 µM (inactive),4.56 µM (inactive),1.96 µM (inactive),3.15 µM (inactive),5.18 µM (inactive),2.54 µM (inactive),2.82 µM (inactive),30.2 µM (inactive),10.1 µM (inactive),10.6 µM (inactive),31.6,3.98 µM (inactive),12.7 µM (inactive),2.43 µM (inactive),4.47 µM (inactive),4.07 µM (inactive)
Cn1c(=O)c2[nH]c(/N=N\n3ccc4ccccc43)nc2n(C)c1=O,> 100 µM (inactive),> 100 µM (inactive),> 100 µM (inactive),> 100 µM (inactive),> 100 µM (inactive),> 100 µM (inactive),> 100 µM (inactive),> 100 µM (inactive),> 100 µM (inactive),> 100 µM (inactive),> 100 µM (inactive),> 100 µM (inactive),> 100 µM (inactive),> 100 µM (inactive),> 100,> 100 µM (inactive),> 100 µM (inactive),> 100 µM (inactive),> 100 µM (inactive),> 100 µM (inactive)
COc1ccc(C2=NN(C(=O)c3ccccc3)C(O)(c3cc(F)c(Cl)cc3Cl)C2)cc1OC (stereo not given),43.1 µM (inactive),57.5 µM (inactive),32.4 µM (inactive),30.3 µM (inactive),> 100 µM (inactive),56.1 µM (inactive),29.5 µM (inactive),34.5 µM (inactive),57.9 µM (inactive),18.5 µM (inactive),> 100 µM (inactive),35.9 µM (inactive),94.4 µM (inactive),> 100 µM (inactive),> 100,27.5 µM (inactive),62.1 µM (inactive),> 100 µM (inactive),42.2 µM (inactive),31.3 µM (inactive)
CC(C)=CCCC(C)CCOS(=O)C(F)(F)F (stereo not given),31.3 µM (inactive),1.6 µM (inactive),9.66 µM (inactive),> 100 µM (inactive),2.88 µM (inactive),1.71 µM (inactive),25.1 µM (inactive),1.16 µM (inactive),3.15 µM (inactive),6.59 µM (inactive),5.24 µM (inactive),> 100 µM (inactive),7.93 µM (inactive),15.8 µM (inactive),2.49,25.2 µM (inactive),4.16 µM (inactive),3.78 µM (inactive),16.6 µM (inactive),18 µM (inactive)
